Source: BigSolDB 2.1

CC(=O)Nc1ccc(C(=O)O)cc1
Conditions | solubility (mole fraction)
in 1,4-dioxane, 288.15 K | 0.00281
in 1,4-dioxane, 293.15 K | 0.00326
in 1,4-dioxane, 298.15 K | 0.00345
in 1,4-dioxane, 303.15 K | 0.00394
in 1,4-dioxane, 308.15 K | 0.00446
in 1,4-dioxane, 313.15 K | 0.00491
in 1,4-dioxane, 318.15 K | 0.00577
in 1,4-dioxane, 323.15 K | 0.00639
in 1,4-dioxane, 328.15 K | 0.00698
in acetic acid, 293.15 K | 0.00404
in acetic acid, 298.15 K | 0.00486
in acetic acid, 303.15 K | 0.00554
in acetic acid, 308.15 K | 0.00625
in acetic acid, 313.15 K | 0.007
in acetic acid, 318.15 K | 0.00782
in acetic acid, 323.15 K | 0.00894
in acetic acid, 328.15 K | 0.00963
in acetic acid, 333.15 K | 0.0111
in acetone, 283.15 K | 0.00302
in acetone, 288.15 K | 0.00338
in acetone, 293.15 K | 0.00384
in acetone, 298.15 K | 0.00454
in acetone, 303.15 K | 0.00538
in acetone, 308.15 K | 0.00635
in acetone, 313.15 K | 0.00709
in acetone, 318.15 K | 0.00804
in acetone, 323.15 K | 0.00913
in acetonitrile, 283.15 K | 0.000293
in acetonitrile, 288.15 K | 0.000405
in acetonitrile, 293.15 K | 0.000433
in acetonitrile, 298.15 K | 0.000515
in acetonitrile, 303.15 K | 0.000653
in acetonitrile, 308.15 K | 0.000803
in acetonitrile, 313.15 K | 0.000943
in acetonitrile, 318.15 K | 0.00107
in acetonitrile, 323.15 K | 0.00132
in ethanol, 283.15 K | 0.00586
in ethanol, 288.15 K | 0.00674
in ethanol, 293.15 K | 0.0075
in ethanol, 298.15 K | 0.00834
in ethanol, 303.15 K | 0.00921
in ethanol, 308.15 K | 0.0101
in ethanol, 313.15 K | 0.0114
in ethanol, 318.15 K | 0.0126
in ethanol, 323.15 K | 0.014
in isobutanol, 283.15 K | 0.00351
in isobutanol, 288.15 K | 0.00456
in isobutanol, 293.15 K | 0.00519
in isobutanol, 298.15 K | 0.00601
in isobutanol, 303.15 K | 0.00696
in isobutanol, 308.15 K | 0.00822
in isobutanol, 313.15 K | 0.00912
in isobutanol, 318.15 K | 0.0103
in isobutanol, 323.15 K | 0.0113
in isopropanol, 283.15 K | 0.00546
in isopropanol, 288.15 K | 0.00663
in isopropanol, 293.15 K | 0.00713
in isopropanol, 298.15 K | 0.00796
in isopropanol, 303.15 K | 0.009
in isopropanol, 308.15 K | 0.00986
in isopropanol, 313.15 K | 0.011
in isopropanol, 318.15 K | 0.012
in isopropanol, 323.15 K | 0.0137
in methanol, 283.15 K | 0.006
in methanol, 288.15 K | 0.00663
in methanol, 293.15 K | 0.00738
in methanol, 298.15 K | 0.00839
in methanol, 303.15 K | 0.00941
in methanol, 308.15 K | 0.0103
in methanol, 313.15 K | 0.0115
in methanol, 318.15 K | 0.0126
in methanol, 323.15 K | 0.0141
in n-butanol, 283.15 K | 0.00486
in n-butanol, 288.15 K | 0.00552
in n-butanol, 293.15 K | 0.00599
in n-butanol, 298.15 K | 0.00722
in n-butanol, 303.15 K | 0.00812
in n-butanol, 308.15 K | 0.00974
in n-butanol, 313.15 K | 0.0108
in n-butanol, 318.15 K | 0.0122
in n-butanol, 323.15 K | 0.0136
in n-pentanol, 283.15 K | 0.00507
in n-pentanol, 288.15 K | 0.00554
in n-pentanol, 293.15 K | 0.00607
in n-pentanol, 298.15 K | 0.00659
in n-pentanol, 303.15 K | 0.00741
in n-pentanol, 308.15 K | 0.00844
in n-pentanol, 313.15 K | 0.00938
in n-pentanol, 318.15 K | 0.0115
in n-pentanol, 323.15 K | 0.0138
in n-propanol, 283.15 K | 0.0048
in n-propanol, 288.15 K | 0.00548
in n-propanol, 293.15 K | 0.00608
in n-propanol, 298.15 K | 0.007
in n-propanol, 303.15 K | 0.00792
in n-propanol, 308.15 K | 0.00883
in n-propanol, 313.15 K | 0.00986
in n-propanol, 318.15 K | 0.0113
in n-propanol, 323.15 K | 0.0127
in sec-butanol, 283.15 K | 0.00515
in sec-butanol, 288.15 K | 0.00602
in sec-butanol, 293.15 K | 0.00666
in sec-butanol, 298.15 K | 0.00796
in sec-butanol, 303.15 K | 0.00936
in sec-butanol, 308.15 K | 0.0107
in sec-butanol, 313.15 K | 0.0122
in sec-butanol, 318.15 K | 0.0136
in sec-butanol, 323.15 K | 0.015
